According to patent US20220023291A1, “COMPOSITIONS AND METHODS FOR REGULATING INFLAMMATION” (University of Virginia Patent Foundation, priority 2018, published 2022):
“Also recorded” adds a separate entry of the source. Each block holds one compound with its values, some of them ahead of it.

Legend:
HEK293 cells = experiment: Immunoblot for total IRE1 in HEK293 cells overexpressing IRE1 and S1R; type: cell-based; conditions: 5 μM lactacystin or 30 μM chloroquine, 6 hours
Excerpt: Western blot. […] Linear level adjustments were applied to entire images to enhance visualization.
Transfection of proteins for overexpression.

LPS challenged mice = experiment: In vivo LPS (endotoxin) challenge; set-up: species or system mouse
Protocol: Endotoxin challenge. In vivo endotoxin challenge was performed on mice at 8-12 weeks of age. LPS from E. coli 0111:B4 (Sigma-Aldrich, L2630) was injected intraperitoneally as described in the manuscript. STF 083010 (Medchem Express, HY-15845) was resuspended in 33% Kolliphor-EL (Sigma, C5135) and administered intraperitoneally at 30 mg/kg immediately after and again 24 hours after LPS injection.
Peritoneal contents collection. Three hours after LPS injection, peritoneal cavities were washed with 2.5 mL of ice-cold PBS+5 mM EDTA, and then centrifuged to pellet cells. Supernatants were collected for ELISA, and the remaining cells were washed and stored as previously described (Gaultier et al., 2008).
LPS challenge. In vivo LPS challenge was performed on adult mice (8-12 weeks of age). LPS from E. coli 0111:B4 (Sigma-Aldrich, L2630) was injected intraperitoneally, as described in the manuscript. STF083010 (Medchem Express, HY-15845) was resuspended in 33% Kolliphor-EL (Sigma, C5135) and administered intraperitoneally at 30 mg/kg immediately after and again 24 hours after LPS injection. Fluvoxamine was resuspended in saline and administered at 20 mg/kg as indicated in the text. Blood for serum ELISA was collected from facial vein at the peak serum concentration of TNF-α and IL-6 (Copeland et al., 2005a).
Peritoneal exudates collection. Peritoneal cavities content were collected 3 hours after LPS injection in PBS+5 mM EDTA, then centrifuged to pellet cells. Supernatants were collected for ELISA, and cells were washed and stored as previously described (Gaultier et al., 2008).

BMDM = experiment: IL-6 ELISA on supernatant of LPS-stimulated BMDM; type: cell-based, mouse; conditions: 1 μg/mL LPS, 6 hours; for Difference in LPS-induced IL-6 secretion between WT and S1R KO BMDM: 20 μM JSH-23, 20 μM PD98059, 1 μM SP600125, 5 μM 4μ8C; for LPS-induced IL-6 secretion: WT and S1R KO BMDM, 20 μM JSH-23, 20 μM PD98059, 1 μM SP600125
Protocol: (§1) Tissue culture conditions and Reagents. HEK293 cells, primary lung fibroblasts and BMDM were isolated and maintained as described (41-43). Cells were treated with LPS (Sigma, L4391), 4μ8C (Tocris, 4479), tunicamycin (Tocris, 3516), PD98059 (Medchem Express HY-12028), JSH-23 (Medchem Express, Hy-13982), SP600125 (Medchem Express, HY-12041), cycloheximide (Tocris, 0970), lactacystin (Cayman Chemical, 70980), chloroquine (Fisher, ICN19391925), and STF 083010 (Medchem Express, HY-15845) as described in the text.
(§2) ELISA. ELISA for IL-6 and TNFα were performed as previously described (Remick et al., 2002). Antibodies used were: anti-mouse IL-6 MP5-20F3 (Biolegend, 504501) 0.5 μg/mL; biotin anti-mouse IL-6 MP5-32C11 (Biolegend, 504601) 1 μg/mL; anti-mouse TNFα (R&D systems, AF-410-NA) 0.5 μg/mL; biotin anti-mouse TNFα (R&D systems, BAF410) 0.25 μg/mL.
Tissue culture conditions and Reagents. HEK293 mTLR4/MD2/CD14 (Invivogen, 293-mtlr4md2cd14), primary lung fibroblasts, and BMDM were isolated and maintained as described (Zhang et al., 2008; Seluanov et al., 2010). Cells and animals were treated with LPS (Sigma, L4391), 4μ8C (Tocris, 4479), APY-29 (Medchem Express HY-17537), PD98059 (Medchem Express HY-12028), JSH-23 (Medchem Express, HY-13982), SP600125 (Medchem Express, HY-12041), STF 083010 (Medchem Express, HY-15845), Fluvoxamine (Medchem Express, HY-B0103A), and Ceftriaxone (Hospira, NDC: 0409-7337-01), as described in the text.
as §2, with “TNF-α” for “TNFα”

muscarinic receptor = conditions: cited from earlier work
tau hyperphosphorylation = conditions: cited from earlier work
sigma-1 receptor = sigma-1 receptor (Homo sapiens, UniProt Q99720); conditions: cited from earlier work
mice = mice treated with scopolamine, synthetic Aβ oligomer injection, or dizocilpine; cited from earlier work
[1] = system: heparinized peripheral blood from healthy donors; experiment: Human whole blood stimulation ex vivo with LPS, multiplex cytokine analysis; type: cell-based; conditions: 10 ng/mL LPS, 20 μM fluvoxamine, 4 hours
Protocol: Human whole blood stimulation. Study participants were healthy adults (ages 18-45). The study was approved by the Institutional Review Board at the University of Virginia, and all participants signed informed consent before enrollment. Blood was collected into heparinized vacuum tube, then stimulated with 10 ng/mL LPS+/−20 μM fluvoxamine for 4 hours, as described (Thurm & Halsey, 2005). Cytokine concentrations were determined by multiplex analysis.

FIP sepsis model mice = experiment: Fecal induced peritonitis (FIP); type: in vivo, mouse; conditions: for Survival: 1.5 g/kg fecal slurry
Protocol: Fecal induced peritonitis (FIP). Fecal material was isolated from the caecum of age- and sex-matched WT animals coming from the UVA vivarium for FIGS. 10A-10D and 10L-10R or from Jackson Laboratory for FIGS. 12D-12O, resuspended in saline and passed through a […] strainer to remove large particles. The slurry was prepared fresh for each experiment. Core body temperature was measured and mice were scored with murine sepsis severity scale by two independent, blinded researchers (Shrum et al., 2014). Blood for serum ELISA was collected from facial vein at 3 hours post FIP induction. Where indicated, fluvoxamine in saline was administered intraperitoneally at a dose of 20 mg/kg, and ceftriaxone in saline was given at a dose of 100 mg/kg subcutaneously.

[2] = biological target: T1, IRE1 endonuclease activity (Mus musculus, UniProt Q9EQY0); experiment: XBP1 splicing ratio by qPCR in BMDM; type: cell-based
T1 construct: We prepared bone marrow derived macrophages (BMDM) from WT and S1R KO mice; endogenous in cells; host or cells: primary mouse bone marrow derived macrophages (WT and S1R KO, C57BL/6J background)
Protocol: as §1
cDNA synthesis and quantitative RT-PCR. Total RNA was extracted using an ISOLATE II RNA (Bioline, 52073) and cDNA synthesis was performed with the ISCRIPT™ kit (Bio-Rad, 170-8891). TaqMan Probes were obtained from Life Technologies (GAPDH: Mm99999915_g1; IL-6: Mm00446190_m1; pro-IL-1β: Mm00434228_m1; TNFα: Mm00443258_m1). Primers for IRE1 detection were GCACGUGAAUUGAUAGAGA (SEQ ID NO: 10) and UCUCUAUCAAUUCACGUGC (SEQ ID NO: 11). Primers for the detection of XBP1 were previously published (Lipson et al., 2008). RT-PCR was performed as described previously (Gaultier et al., 2009).
cDNA synthesis and quantitative PCR. Total RNA was extracted using an ISOLATE II RNA kit (Bioline, 52073) and cDNA synthesis was performed with the SENSIFAST™ cDNA synthesis kit (Bioline, BIO-65054). TaqMan Probes were obtained from Thermo Fisher (GAPDH: Mm99999915_g1; IL-6: Mm00446190_m1; pro-IL-1β: Mm00434228_m1; IL10: Mm004396). Primers for the detection of XBP1, IL-8, and actin were previously published (Vandesompele et al., 2002; Kumar & Valdivia, 2008; Girard et al., 2009). qPCR was performed as described previously (Gaultier et al., 2008).

[3] = LPS 2 mg/kg co-administered with STF 30 mg/kg
[4] = LPS 2 mg/kg, STF 30 mg/kg i.p. at 0 hours and 24 hours
[5] = LPS 6 mg/kg, fluvoxamine 20 mg/kg at the same time as LPS
[6] = treatment 90 min post FIP induction, fluvoxamine 20 mg/kg i.p. and/or ceftriaxone 100 mg/kg s.c.

sigma-1 receptor, sequence (Q99720 whole entry): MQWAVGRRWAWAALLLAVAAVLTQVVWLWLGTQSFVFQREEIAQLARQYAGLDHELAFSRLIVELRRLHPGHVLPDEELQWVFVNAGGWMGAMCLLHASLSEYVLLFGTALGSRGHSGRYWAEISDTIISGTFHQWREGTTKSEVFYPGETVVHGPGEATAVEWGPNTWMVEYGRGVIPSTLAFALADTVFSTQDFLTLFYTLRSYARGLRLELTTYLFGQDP
T1 sequence (Q9EQY0 21-977): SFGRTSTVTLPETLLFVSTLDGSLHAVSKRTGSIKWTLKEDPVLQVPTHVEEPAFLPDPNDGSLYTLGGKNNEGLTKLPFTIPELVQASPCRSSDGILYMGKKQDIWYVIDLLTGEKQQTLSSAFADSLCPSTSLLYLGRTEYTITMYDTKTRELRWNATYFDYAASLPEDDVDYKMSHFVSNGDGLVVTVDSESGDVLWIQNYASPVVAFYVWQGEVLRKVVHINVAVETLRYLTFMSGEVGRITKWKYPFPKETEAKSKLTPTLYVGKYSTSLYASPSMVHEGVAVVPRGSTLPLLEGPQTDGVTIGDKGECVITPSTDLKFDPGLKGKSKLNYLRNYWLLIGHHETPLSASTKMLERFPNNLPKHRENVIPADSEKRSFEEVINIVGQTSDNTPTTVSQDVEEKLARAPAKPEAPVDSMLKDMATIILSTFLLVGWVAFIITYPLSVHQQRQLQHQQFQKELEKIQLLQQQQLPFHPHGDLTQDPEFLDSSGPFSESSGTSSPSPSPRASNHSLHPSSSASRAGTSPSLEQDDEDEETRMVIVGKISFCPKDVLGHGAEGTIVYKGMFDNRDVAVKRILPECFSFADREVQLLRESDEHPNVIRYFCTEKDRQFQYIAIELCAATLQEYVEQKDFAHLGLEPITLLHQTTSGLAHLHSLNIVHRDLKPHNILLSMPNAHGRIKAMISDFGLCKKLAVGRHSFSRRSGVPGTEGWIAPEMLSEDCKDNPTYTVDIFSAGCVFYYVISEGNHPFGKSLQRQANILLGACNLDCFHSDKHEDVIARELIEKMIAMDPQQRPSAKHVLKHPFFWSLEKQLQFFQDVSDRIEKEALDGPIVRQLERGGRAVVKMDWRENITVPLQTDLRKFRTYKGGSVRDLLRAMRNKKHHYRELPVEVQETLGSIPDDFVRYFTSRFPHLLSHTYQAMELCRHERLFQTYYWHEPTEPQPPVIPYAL

Compound: CCN(CC)CCCC(C)Nc1ccnc2cc(Cl)ccc12 (centres unmarked) [chloroquine]
Rescue of IRE1 protein levels in the presence of S1R overexpression (HEK293 cells): Neither lactacystin nor chloroquine treatment could rescue IRE1 protein levels

Compound: O=S(=O)(N=Cc1c(O)ccc2ccccc12)c1cccs1 [STF, N-[(2-Hydroxy-1-naphthalenyl)methylene]-2-thiophenesulfonamide]
Median survival of S1R KO mice (LPS challenged mice; [3]): 113 h | Mortality of S1R KO mice (LPS challenged mice; [3]): 62.5% | LPS induced mortality / survival of S1R KO mice (LPS challenged mice; [4]): largely rescued; also recorded: spared KO mice from LPS induced mortality; also recorded: clear benefit in S1R KO survival | Survival of WT mice (LPS challenged mice; [4]): did not significantly affect the survival of WT mice | Serum IL-6 (LPS challenged mice; S1R KO mice, LPS 2 mg/kg, STF 30 mg/kg i.p., serum 3 hours after LPS): significantly decreased serum IL-6; also recorded: trend toward decreased IL-6 | IL-6 in the peritoneal exudate (LPS challenged mice; S1R KO mice, LPS 2 mg/kg, STF 30 mg/kg, 3 hours after LPS): corrected by STF treatment | Blocking IL-6 secretion in S1R KO BMDM stimulated with LPS (BMDM; STF 083010 (60 μM) compared with 4μ8C (5 μM), FIG. 7A): as effective as 4μ8C | IRE1 inhibitor effectiveness (IL-6 ELISA, FIG. 11C) (BMDM; BMDM, 20 μM STF): effective IRE1 inhibitor

Compound: Cc1ccc(NCCCc2ccccc2)c(N)c1 [JSH-23]
Difference in LPS-induced IL-6 secretion between WT and S1R KO BMDM (BMDM): did not eliminate the difference | LPS-induced IL-6 secretion (BMDM): reduced LPS-induced IL-6 secretion

Compound: COc1cccc(-c2cc(=O)c3ccccc3o2)c1N [PRESENTLY DISCLOSED 98059]
Difference in LPS-induced IL-6 secretion between WT and S1R KO BMDM (BMDM): without altering the ability of S1R KO BMDM to produce more IL-6 | LPS-induced IL-6 secretion (BMDM): significant decrease in IL-6 production

Compound: CC(=O)N[C@@H](CSC(=O)[C@]1([C@@H](O)C(C)C)NC(=O)[C@H](C)[C@@H]1O)C(=O)O [lactacystin]
Rescue of IRE1 protein levels in the presence of S1R overexpression (HEK293 cells): Neither lactacystin nor chloroquine treatment could rescue IRE1 protein levels

Compound: CN(C)CC1CCOC1(c1ccccc1)c1ccccc1.Cl (centres unmarked) [ANAVEX® 2-73, tetrahydro-N,N-dimethyl-2,2-diphenyl-3-furanmethanamine hydrochloride]
Binding to the muscarinic receptor (muscarinic receptor): low micromolar range | Tau hyperphosphorylation (tau hyperphosphorylation): may block tau hyperphosphorylation | Affinity for / binding to sigma-1 receptor (S1R) (sigma-1 receptor): high nanomolar range | Memory and neuroprotection effects (mice): memory-preserving and neuroprotective effects

Compound: COCCCC/C(=N\OCCN)c1ccc(C(F)(F)F)cc1 [fluvoxamine]
Affinity for / binding to sigma-1 receptor (S1R) (sigma-1 receptor): low-nanomolar affinity; also recorded: high affinity | Breadth of modulation of inflammatory mediators (FIG. 14) [1]: limited to a subset of inflammatory mediators | IL-8 production [1]: decreased | LPS-induced IL-1β [1]: significantly reduced | LPS-induced IL-6 [1]: significantly reduced | LPS-induced IL-12 p40 [1]: significantly reduced | Rectal temperature (LPS challenged mice; C57BL/6J, 24 hours after LPS, fluvoxamine 90 min post LPS challenge): improved | Clinical score (total murine sepsis score) (LPS challenged mice; C57BL/6J, LPS 6 mg/kg, fluvoxamine 90 min post LPS challenge): improved | Survival (LPS challenged mice; C57BL/6J, LPS 6 mg/kg, therapeutic fluvoxamine 90 min post LPS challenge): significantly enhanced survival | Mortality of S1R KO animals (LPS challenged mice; [5]): no significant effect | Mortality of WT mice (LPS challenged mice; [5]): significantly protected WT mice from mortality | Serum IL-6 in S1R KO animals (LPS challenged mice; [5]): no significant effect | Serum IL-6 in WT mice (LPS challenged mice; LPS 6 mg/kg, fluvoxamine 20 mg/kg at the same time as LPS, 3 hours after LPS): reduced serum IL-6 | Survival (FIP sepsis model mice; therapeutic fluvoxamine 30 min post FIP induction): significantly enhanced survival | Survival (FIP sepsis model mice; [6]): as efficacious in enhancing survival as Ceftriaxone | Rectal temperature (FIP sepsis model mice; C57BL/6J, 24 hours after FIP induction, fluvoxamine 30 min post FIP induction): improved | Clinical score (total murine sepsis score) (FIP sepsis model mice; C57BL/6J, fluvoxamine 30 min post FIP induction): improved

Compound: CO/N=C(\C(=O)N[C@@H]1C(=O)N2C(C(=O)O)=C(CSc3nc(=O)c(=O)[nH]n3C)CS[C@H]12)c1csc(N)n1 [Ceftriaxone]
Survival (FIP sepsis model mice; [6]): enhancing survival

XBP1 splicing amounts after forced IRE1 activation ([2]; WT vs S1R KO BMDM, activator of IRE1, 6 hours): equal in both genotypes
Compound: c1cc(Nc2cc(C3CC3)[nH]n2)nc(Nc2ccc3nc[nH]c3c2)n1 [APY29]

Compound: tunicamycin
XBP1 splicing after tunicamycin ([2]; S1R KO vs WT BMDM, 5 μM tunicamycin, 6 hours): elevated XBP1 splicing in S1R KO BMDM
